This passage reports IC50 and inhibition results from patent US5719278A, “Tricyclic benzazepine vasopressin antagonists” (American Cyanamid Company, priority 1996, dated 1998).

For assay [1], the target named is T1, oxytocin receptors (Rattus norvegicus, UniProt P70536).
T1 construct: The uteri are dissected out, cleaned of fat and connective tissues; from tissue; host or cells: uterus of DES-treated female Sprague-Dawley rats
T1 sequence (P70536 1-388): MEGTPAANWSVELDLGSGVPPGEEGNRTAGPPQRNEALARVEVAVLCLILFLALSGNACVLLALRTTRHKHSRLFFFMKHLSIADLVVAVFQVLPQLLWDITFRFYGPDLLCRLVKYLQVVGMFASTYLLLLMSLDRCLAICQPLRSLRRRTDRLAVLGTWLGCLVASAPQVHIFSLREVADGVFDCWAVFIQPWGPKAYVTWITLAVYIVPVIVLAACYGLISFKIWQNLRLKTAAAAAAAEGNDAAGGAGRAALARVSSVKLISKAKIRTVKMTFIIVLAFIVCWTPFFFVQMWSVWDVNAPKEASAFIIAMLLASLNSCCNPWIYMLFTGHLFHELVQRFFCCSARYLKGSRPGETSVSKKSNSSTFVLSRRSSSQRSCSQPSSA
Description: Oxytocin Receptor Binding. Further details: species or system Sprague-Dawley rat. The settings on record: for IC50: 1.0 nM [^3 H]OT, 60 min., 22° C. How it is done: Oxytocin Receptor Binding
Female Sprague-Dawley rats weighing approximately 200-250 g are injected intramuscularly (i.m.) with 0.3 mg/kg of body weight of diethylstilbestrol (DES). The rats are sacrificed 18 hours later under pentobarbital anesthesia. The uteri are dissected out, cleaned of fat and connective tissues and rinsed in 50 ml of normal saline. The tissue pooled from six rats is homogenized in 50 ml of […] TriS.HCl, containing 0.5 mM dithiothreitol and 1.0 mM EDTA, adjusted to pH 7.4, using a polytron at setting 6 with three passes of 10 sec each. The homogenate is passed through two (2) layers of cheesecloth and the filtrate contrifuged at 1000×g for 10 min. The clear supernatant is removed and recentrifuged at 165,000×g for 30 min. The resulting pellet containing the oxytocin receptors is resuspended in 50.0 mM Tris.HCl containing 5.0 mM MgCl2 at pH 7.4, to give a protein concentration of 2.5 mg/ml of tissue suspension. This preparation is used in subsequent binding assays with [^3 H]Oxytocin.
Binding of 3,5-[^3 H]Oxytocin ([^3 H]OT) to its receptors is done in microtiter plates using [^3 H]OT, at various concentrations, in an assay buffer of 50.0 mM Tris.HCl, pH 7.4 and containing 5.0 mM MgCl2, and a mixture of protease inhibitors: BSA, 0.1 mg; aprotinin, 1.0 mg; 1,10-phenanthroline, 2.0 mg; […], 10.0 mg; and PMSF, 0.3 mg per 100 ml of buffer solution. Non-specific binding is determined in the presence of 1.0 uM unlabeled OT. The binding reaction is terminated after 60 min., at 22° C., by rapid filtration through glass fiber filters using a Brandel® cell harvester (Biomedical Research and Development Laboratories, Inc., Gaithersburg, Md.). Competition experiments are conducted at equilibrium using 1.0 nM [^3 H]OT and varying the concentration of the displacing agents. The concentrations of agent displacing 50% of [^3 H]OT at its sites (IC50) are calculated by a computer assisted LUNDON-2 program (LUNDON SOFTWARE INC., Ohio, U.S.A.).

Assay [2] concerns the target T2, Rat Kidney Medullary V2 Receptors (Rattus norvegicus, UniProt Q00788).
T2 construct: Medullary tissues from rat kidneys are dissected out; from tissue; host or cells: rat kidney medulla membranes
Description: Binding Assay to Rat Kidney Medullary V2 Receptors. The settings on record: Rat Kidney Medullary V2 Receptors (no asterisk). The protocol:
Binding Assay to Rat Kidney Medullary V2 Receptors
Medullary tissues from rat kidneys are dissected out, cut into small pieces and let soak in a […] sodium chloride solution containing 1.0 mM EDTA with many changes of the liquid phase, until the solution is clear of blood. The tissue is homogenized in a 0.25M sucrose solution containing 1.0 mM EDTA and 0.1 mM PMSF using a Potter-Elvehjem homogenizer with a teflon pestle. The homogenate is filtered through several layers (4 layers) of cheese cloth. The filtrate is rehomogenized using a dounce homogenizer, with a tight fitting pestle. The final homogenate is contrifuged at 1500×g for 15 min. The nuclear pellet is discarded and the supernatant fluid recentrifuged at 40,000×g for 30 min. The resulting pellet formed contains a dark inner part with the exterior, slightly pink. The pink outer part is suspended in a small amount of 50.0 mM Tris.HCl buffer, pH 7.4. The protein content is determined by the Lowry's method (Lowry et al, J. Biol. Chem., 1953). The membrane suspension is stored at -70° C., in 50.0 mM Tris.HCl, containing 0.2% inactivated BSA and 0.1 mM PMSF in aliquots of 1.0 ml containing 10.0 mg protein per ml of suspension until use in subsequent binding experiments.
For binding experiments, the following is added in μl volume to wells of a 96 well format of a microtiter plate: 100.0 μl of 100.0 mM Tris.HCl buffer containing 0.2% heat inactivated BSA, 10.0 mM MgCl2 and a mixture of protease inhibitors: leupeptin, 1.0 mg %; aprotinin, 1.0 mg %; 1,10-phenanthroline, 2.0 mg %; trypsin inhibitor, 10.0 mg % and 0.1 mM PMSF, 20.0 μl of [^3 H]Arginine^8, vasopressin (S.A. 75.0 Ci/mmole) at 0.8 nM and the reaction initiated by the addition of 80.0 μl of tissue membranes (200.0 μg tissue protein). The plates are left undisturbed on the bench top for 120 min. to reach equilibrium. Non-specific binding is assessed in the presence of 1.0 μM of unlabeled ligand, added in 20 μl volume. For test compounds, these are solubilized in 50% dimethylsulfoxide (DMSO) and added in 20.0 μl volume to a final incubation volume of 200 μl. Upon completion of binding, the content of each well is filtered off, using a Brandel® cell Harvester (Gaithersburg, Md.). The radioactivity trapped on the filter disk by the ligand-receptor complex is assessed by liquid scintillation counting in a Packard LS Counter, with an efficiency of 65% for tritium. The data are analyzed for IC50 values by the LUNDON-2 program for competition (LUNDON SOFTWARE, Ohio).

T2 sequence (Q00788 whole entry): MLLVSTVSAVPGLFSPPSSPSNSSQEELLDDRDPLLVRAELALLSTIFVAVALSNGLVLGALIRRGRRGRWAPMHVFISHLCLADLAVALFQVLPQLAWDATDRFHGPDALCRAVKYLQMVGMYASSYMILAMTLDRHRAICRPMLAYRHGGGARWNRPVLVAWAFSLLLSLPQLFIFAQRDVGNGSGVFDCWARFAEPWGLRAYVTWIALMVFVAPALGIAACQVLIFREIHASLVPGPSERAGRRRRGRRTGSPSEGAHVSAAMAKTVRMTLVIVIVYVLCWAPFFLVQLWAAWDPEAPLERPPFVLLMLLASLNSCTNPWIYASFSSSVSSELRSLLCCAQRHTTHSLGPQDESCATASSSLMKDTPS

For orientation: IC50 means the concentration at which inhibition is half-maximal. Low values mean inhibition by little substance, high ones a need for much substance. In general, inhibition refers to how much of the control response was suppressed. For `O=C(Nc1ccc(C(=O)N2CCc3cn[nH]c3-c3ncccc32)cc1)c1ccccc1-c1ccccc1` [Example 365, N-[4-[(4,5-Dihydropyrazolo[3,4-d]pyrido[3,2-b]azepin-6(1H)-yl)carbonyl]phenyl][1,1'-biphenyl]-2-carboxamide], the IC50 in assay [1] turned out to be 2.5 µM; in assay [2] it was 0.0016 µM. In assay [1], the inhibition at 10 µM is 57%.

In the case of `O=C(Nc1ccc(C(=O)N2CCc3cn[nH]c3-c3sccc32)cc1)c1ccc(F)cc1Cl` [Example 1, N-[4-[(4,5-Dihydropyrazolo[3,4-d]thieno[3,2-b]azepin-6(1H)-yl)carbonyl]phenyl]-2-chloro-4-fluorobenzamide], the results for the IC50 in assay [1] and in assay [2] were 2.5 µM and 0.34 µM, respectively. The molecule further displayed an inhibition at 10 µM in assay [1] of 93%.

In assay [1], `Cc1ccc(F)cc1C(=O)Nc1ccc(C(=O)N2CCc3c[nH]nc3-c3ncccc32)cc1` [Example 367, N-[4-[4(4,5-Dihydropyrazolo[3,4-d]pyrido[3,2-b]azepin-6(1H)-yl)carbonyl]phenyl]-5-fluoro-2-methylbenzamide] displayed an IC50 of 2.1 µM and an inhibition at 10 µM of 63%. In assay [2], this molecule came in with an IC50 of 0.03 µM.
